Measurements reported in publication PMC10053369, “Recombinant Analogs of Sea Anemone Kunitz-Type Peptides Influence P2X7 Receptor Activity in Neuro-2a Cells” (Marine Drugs, 2023).
Positions of bridges follow the written chain, without caps; N, C: chain ends. No end group written: not given here.

Tested on: Neuro-2a cells
Assay: Cytoprotection against ATP-induced cell death (MTT assay)
Assay type: cell-based, mouse
Conditions: long-time application of ATP (4 mM, 48 h)
Description: Neuro-2a neuroblastoma cells (ATCC® CCL-131™) were obtained from American Type Culture Collection (Manassas, VA, USA). The cells were cultivated in DMEM medium (BioloT, St. Petersburg, Russia) supplemented with 10% of fetal bovine serum (BioloT, St. Petersburg, Russia) and 1% penicillin/streptomycin (BioloT, St. Petersburg, Russia) at 37 °C and 5% CO2. Initially, cells were incubated in cultural flasks until sub-confluent (~80%). For testing, Neuro-2a cells were seeded in 96-well plates and experiments were started after 24 h.
The cytoprotective effect of peptides was assessed in Neuro-2a cells using the MTT assay. In brief, an aliquot (180μL) of cell suspension with a nominal cell density of 3 × 10^4 cells/well was dispensed into 96-well plates. The cells were incubated for 24 h in a humidified atmosphere containing 5% CO2 to allow cell attachment. At the end of the preincubation period, ATP (Sigma-Aldrich, St. Louis, MO, USA) was added to the cells at a concentration of 4 mM. Studied peptides were added to the cells at concentrations of 0.1, 1.0 or 10.0 μM for 1h prior to the addition of ATP. After incubation for 48 h at 37 °C cell viability was detected using the MTT as described previously. The standard P2X7 inhibitor, A438079 (Sigma-Aldrich, St. Louis, MO, USA), at a concentration of 10 μM was used as a positive control.
All data were obtained in three independent replicates and calculated values were expressed as mean ± standard error of the mean (SEM). The Student’s t-test was performed using SigmaPlot 14.0 (Systat Software Inc., San Jose, CA, USA) to determine statistical significance.

**Q.** “RGICSEPKVVGPCKAGLRRFYYDSETGECKPFIYGGCKGNKNNFETLHACRGICRA (disulfide 4-54, 13-37, 29-50 (inferred)) [HCRG1]” was tested. Which “protection from ATP-induced death” value did it give?
**A.** Its value is “partially protected neuroblastoma cells from ATP-induced death”.
